According to patent publication US20240279278A1, “NMU RECEPTOR 2 AGONISTS” (Boehringer Ingelheim International GmbH, priority 2023, published 2024):
Residues, ends and D or L forms follow the SMILES beside them.

T1: human NMUR1 receptor (Homo sapiens, UniProt Q9HB89)
T1 construct: expressed in transfected cells; host or cells: CHO-K1
T1 sequence (Q9HB89 1-426): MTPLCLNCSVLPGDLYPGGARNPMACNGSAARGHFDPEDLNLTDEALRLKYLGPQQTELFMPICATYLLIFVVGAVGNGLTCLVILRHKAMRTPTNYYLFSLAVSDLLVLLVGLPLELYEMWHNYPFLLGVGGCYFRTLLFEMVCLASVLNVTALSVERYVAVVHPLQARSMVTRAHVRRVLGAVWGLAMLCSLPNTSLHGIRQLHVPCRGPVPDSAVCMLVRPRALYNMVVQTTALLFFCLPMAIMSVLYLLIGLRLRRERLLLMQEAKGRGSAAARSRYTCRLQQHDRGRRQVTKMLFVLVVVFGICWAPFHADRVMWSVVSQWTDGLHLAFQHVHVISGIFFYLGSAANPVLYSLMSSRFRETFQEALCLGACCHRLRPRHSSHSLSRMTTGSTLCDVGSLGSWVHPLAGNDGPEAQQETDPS

T2: human neuromedin U receptor 1 (human, UniProt Q9HB89 24-426)
T2 sequence (looked up): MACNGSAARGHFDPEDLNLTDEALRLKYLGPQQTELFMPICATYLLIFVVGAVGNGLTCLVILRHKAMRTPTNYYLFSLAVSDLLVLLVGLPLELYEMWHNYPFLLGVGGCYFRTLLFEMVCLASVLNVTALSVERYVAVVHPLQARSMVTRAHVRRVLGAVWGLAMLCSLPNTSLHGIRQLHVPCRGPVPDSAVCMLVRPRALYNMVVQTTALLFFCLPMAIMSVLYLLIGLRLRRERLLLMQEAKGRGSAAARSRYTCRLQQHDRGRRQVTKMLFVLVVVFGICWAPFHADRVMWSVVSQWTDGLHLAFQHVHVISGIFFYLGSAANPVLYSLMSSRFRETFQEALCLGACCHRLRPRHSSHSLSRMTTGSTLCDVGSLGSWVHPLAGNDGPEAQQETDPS


What was measured:
[1] = target: T3, human NMUR2 receptor (Homo sapiens, UniProt Q9GZQ4); experiment: IP1 Gq HTRF assay, activation of human NMUR2 in buffer; assay type: cell-based; design: expressed in transfected cells; host or cells: CHO-K1; settings: CHO-K1 cells expressing human NMUR2, stimulation buffer with 0.1% BSA; read-out: EC50 (hNMUR2) buffer
In short: (§1)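 CHO-K1 cells stably expressing human NMUR1 or NMUR2, seeded 24 h before assay, stimulated with peptide agonists (8-point dose-response, 1% DMSO final) in HEPES/HBSS buffer with 50 mM LiCl and 0.1% BSA, pH 7.4, 1 h at 37 °C. IP1 accumulation read by HTRF competition (665/620 nm); EC50 from 4-parameter sigmoidal fit.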

[2] = target: T3, human NMUR2 receptor; experiment: IP1 Gq HTRF assay, activation of human NMUR2 in human plasma; assay type: cell-based; design: expressed in transfected cells; host or cells: CHO-K1; settings: CHO-K1 cells expressing human NMUR2, 100% human plasma; read-out: EC50 (hNMUR2) human plasma
In short: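 CHO-K1 cells stably expressing human NMUR2 exposed to peptide agonists (8-point dose-response) in 100% human plasma with 50 mM LiCl, 1% DMSO, for 1 h at 37° C. IP1 accumulation read by HTRF competition (665/620 nm ratio). EC50 from 4-parameter sigmoidal fit.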

[3] = target: T1, human NMUR1 receptor; experiment: IP1 Gq HTRF assay, activation of human NMUR1 in buffer; assay type: cell-based; settings: CHO-K1 cells expressing human NMUR1, stimulation buffer with 0.1% BSA; read-out: EC50 (hNMUR1) buffer
In short: as §1

[4] = target: T2, human neuromedin U receptor 1; experiment: cell-based or functional assay

T3 sequence (Q9GZQ4 whole entry): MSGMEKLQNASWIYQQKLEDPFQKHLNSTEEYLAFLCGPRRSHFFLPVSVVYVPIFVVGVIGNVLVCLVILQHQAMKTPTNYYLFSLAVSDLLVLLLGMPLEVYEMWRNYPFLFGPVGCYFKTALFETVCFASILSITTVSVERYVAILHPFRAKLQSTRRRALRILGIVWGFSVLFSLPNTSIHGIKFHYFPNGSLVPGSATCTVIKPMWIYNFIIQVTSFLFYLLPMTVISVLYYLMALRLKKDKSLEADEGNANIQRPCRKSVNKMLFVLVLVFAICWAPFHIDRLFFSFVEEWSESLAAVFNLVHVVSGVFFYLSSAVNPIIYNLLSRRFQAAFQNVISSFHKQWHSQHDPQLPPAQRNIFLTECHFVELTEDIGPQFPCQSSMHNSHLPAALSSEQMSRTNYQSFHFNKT

Molecule	EC50 (hNMUR1) buffer [4] [nM]	EC50 [1] [nM]	EC50 [2] [nM]	EC50 [3] [nM]
CCCC[C@H](NC(=O)[C@H](CC(C)C)N(C)C(=O)[C@H](Cc1ccccc1)NC(=O)[C@H](Cc1ccc(O)cc1)NC(=O)CN1CCN(C(=O)CN(C)C(=O)CN(C)C(=O)CN(C)C(=O)CN(C)C(=O)CN(C)C(=O)CN(C)C(=O)CN(C)C(=O)CN(C)C(=O)CN(C)C(=O)CN(C)C(=O)CN(C)C(=O)CN(C)C(=O)CN(C)C(=O)CN(C)C(=O)CN(C)C(=O)CC[C@H](NC(=O)CC[C@H](NC(=O)CC[C@H](NC(=O)CCCCCCCCCCCCCCCCC(=O)O)C(=O)O)C(=O)O)C(=O)O)CC1)C(=O)N[C@@H](CCN)C(=O)N1CCC[C@H]1C(=O)N[C@@H](CCCNC(=N)N)C(=O)NCC(N)=O [Compound 76, C18DA-gGlu3-Sar15-PipAc-Tyr-Phe-NMeLeu-Nle-Dbu-Pro-Arg-Gly-NH2] (HELM PEPTIDE1{[O=C(O)CCCCCCCCCCCCCCCCC(=O)[*:2]].[gGlu].[gGlu].[gGlu].[Sar].[Sar].[Sar].[Sar].[Sar].[Sar].[Sar].[Sar].[Sar].[Sar].[Sar].[Sar].[Sar].[Sar].[Sar].[O=C(CN1CCN([*:1])CC1)[*:2]].Y.F.[meL].[Nle].[Dab].P.R.G.[am]}$$$$V2.0)	–	1.1	6.2	1100
CCCC[C@H](NC(=O)[C@H](CC(C)C)N(C)C(=O)[C@H](Cc1ccccc1)NC(=O)[C@H](Cc1ccc(O)cc1)NC(=O)CN1CCN(C(=O)CN(C)C(=O)CN(C)C(=O)CN(C)C(=O)CN(C)C(=O)CN(C)C(=O)CN(C)C(=O)CN(C)C(=O)CN(C)C(=O)CN(C)C(=O)CN(C)C(=O)CN(C)C(=O)CN(C)C(=O)CN(C)C(=O)CN(C)C(=O)CN(C)C(=O)CC[C@H](NC(=O)CC[C@H](NC(=O)CC[C@H](NC(=O)CCCCCCCCCCCCCCCCC(=O)O)C(=O)O)C(=O)O)C(=O)O)CC1)C(=O)N[C@@H](CCN)C(=O)N(C)[C@@H](C)C(=O)N[C@@H](CCCNC(=N)N)C(=O)NCC(N)=O [Compound 79, C18DA-gGlu3-Sar15-PipAc-Tyr-Phe-NMeLeu-Nle-Dbu-NMeAla-Arg-Gly-NH2] (HELM PEPTIDE1{[O=C(O)CCCCCCCCCCCCCCCCC(=O)[*:2]].[gGlu].[gGlu].[gGlu].[Sar].[Sar].[Sar].[Sar].[Sar].[Sar].[Sar].[Sar].[Sar].[Sar].[Sar].[Sar].[Sar].[Sar].[Sar].[O=C(CN1CCN([*:1])CC1)[*:2]].Y.F.[meL].[Nle].[Dab].[meA].R.G.[am]}$$$$V2.0)	–	1.3	7	> 1000
EEEXXXXXXXXXXXXXXXXYFLXRARG (HELM PEPTIDE1{[O=C(O)CCCCCCCCCCCCCCCCCCC(=O)[*:2]].[gGlu].[gGlu].[gGlu].[Sar].[Sar].[Sar].[Sar].[Sar].[Sar].[Sar].[Sar].[Sar].[Sar].[Sar].[Sar].[Sar].[Sar].[Sar].[O=C(CN1CCN(CCN[*:1])CC1)[*:2]].Y.F.[meL].[Nle].[meR].[meA].R.G.[am]}$$$$V2.0; SMILES CCCC[C@H](NC(=O)[C@H](CC(C)C)N(C)C(=O)[C@H](Cc1ccccc1)NC(=O)[C@H](Cc1ccc(O)cc1)NC(=O)CN1CCN(CCNC(=O)CN(C)C(=O)CN(C)C(=O)CN(C)C(=O)CN(C)C(=O)CN(C)C(=O)CN(C)C(=O)CN(C)C(=O)CN(C)C(=O)CN(C)C(=O)CN(C)C(=O)CN(C)C(=O)CN(C)C(=O)CN(C)C(=O)CN(C)C(=O)CN(C)C(=O)CC[C@H](NC(=O)CC[C@H](NC(=O)CC[C@H](NC(=O)CCCCCCCCCCCCCCCCCCC(=O)O)C(=O)O)C(=O)O)C(=O)O)CC1)C(=O)N(C)[C@@H](CCCNC(=N)N)C(=O)N(C)[C@@H](C)C(=O)N[C@@H](CCCNC(=N)N)C(=O)NCC(N)=O) [C20DA-gGlu3-Sar15-AEPipAc-Tyr-Phe-NMeLeu-Nle-NMeArg-NMeAla-Arg-Gly-NH2]	1400	–	–	–
EEEXXXXXXXXXXXXXYFLXRPRG (HELM PEPTIDE1{[O=C(O)CCCCCCCCCCCCCCCCC(=O)[*:2]].[gGlu].[gGlu].[gGlu].[Sar].[Sar].[Sar].[Sar].[Sar].[Sar].[Sar].[Sar].[Sar].[Sar].[Sar].[Sar].[O=C(CN1CCN(CCN[*:1])CC1)[*:2]].Y.F.[meL].[Nle].[meR].P.R.G.[am]}$$$$V2.0; SMILES CCCC[C@H](NC(=O)[C@H](CC(C)C)N(C)C(=O)[C@H](Cc1ccccc1)NC(=O)[C@H](Cc1ccc(O)cc1)NC(=O)CN1CCN(CCNC(=O)CN(C)C(=O)CN(C)C(=O)CN(C)C(=O)CN(C)C(=O)CN(C)C(=O)CN(C)C(=O)CN(C)C(=O)CN(C)C(=O)CN(C)C(=O)CN(C)C(=O)CN(C)C(=O)CN(C)C(=O)CC[C@H](NC(=O)CC[C@H](NC(=O)CC[C@H](NC(=O)CCCCCCCCCCCCCCCCC(=O)O)C(=O)O)C(=O)O)C(=O)O)CC1)C(=O)N(C)[C@@H](CCCNC(=N)N)C(=O)N1CCC[C@H]1C(=O)N[C@@H](CCCNC(=N)N)C(=O)NCC(N)=O) [C18DA-gGlu3-Sar12-AEPipAc-Tyr-Phe-NMeLeu-Nle-NMeArg-Pro-Arg-Gly-NH2]	190	–	–	–

Further lines, with some results ahead:

EC50 (hNMUR1) buffer [4] [nM]	Molecule	EC50 [1] [nM]	EC50 [2] [nM]	EC50 [3] [nM]
> 1000	EEEXXXXXXXXXXXXXXXXYFLXXARG (HELM PEPTIDE1{[O=C(O)CCCCCCCCCCCCCCCCCCC(=O)[*:2]].[gGlu].[gGlu].[gGlu].[Sar].[Sar].[Sar].[Sar].[Sar].[Sar].[Sar].[Sar].[Sar].[Sar].[Sar].[Sar].[Sar].[Sar].[Sar].[O=C(CN1CCN(CCN[*:1])CC1)[*:2]].Y.F.[meL].[Nle].[Orn].[meA].R.G.[am]}$$$$V2.0; SMILES CCCC[C@H](NC(=O)[C@H](CC(C)C)N(C)C(=O)[C@H](Cc1ccccc1)NC(=O)[C@H](Cc1ccc(O)cc1)NC(=O)CN1CCN(CCNC(=O)CN(C)C(=O)CN(C)C(=O)CN(C)C(=O)CN(C)C(=O)CN(C)C(=O)CN(C)C(=O)CN(C)C(=O)CN(C)C(=O)CN(C)C(=O)CN(C)C(=O)CN(C)C(=O)CN(C)C(=O)CN(C)C(=O)CN(C)C(=O)CN(C)C(=O)CC[C@H](NC(=O)CC[C@H](NC(=O)CC[C@H](NC(=O)CCCCCCCCCCCCCCCCCCC(=O)O)C(=O)O)C(=O)O)C(=O)O)CC1)C(=O)N[C@@H](CCCN)C(=O)N(C)[C@@H](C)C(=O)N[C@@H](CCCNC(=N)N)C(=O)NCC(N)=O) [C20DA-gGlu3-Sar15-AEPipAc-Tyr-Phe-NMeLeu-Nle-Orn-NMeAla-Arg-Gly-NH2]	–	–	–
770	EEEEXXXXXXXXXXXXXXXXYFLXXPRG (HELM PEPTIDE1{[O=C(O)CCCCCCCCCCCCCCCCCCC(=O)[*:2]].[gGlu].[gGlu].[gGlu].[gGlu].[Sar].[Sar].[Sar].[Sar].[Sar].[Sar].[Sar].[Sar].[Sar].[Sar].[Sar].[Sar].[Sar].[Sar].[Sar].[O=C(CN1CCN(CCN[*:1])CC1)[*:2]].Y.F.[meL].[Nle].[Dab].P.R.G.[am]}$$$$V2.0; SMILES CCCC[C@H](NC(=O)[C@H](CC(C)C)N(C)C(=O)[C@H](Cc1ccccc1)NC(=O)[C@H](Cc1ccc(O)cc1)NC(=O)CN1CCN(CCNC(=O)CN(C)C(=O)CN(C)C(=O)CN(C)C(=O)CN(C)C(=O)CN(C)C(=O)CN(C)C(=O)CN(C)C(=O)CN(C)C(=O)CN(C)C(=O)CN(C)C(=O)CN(C)C(=O)CN(C)C(=O)CN(C)C(=O)CN(C)C(=O)CN(C)C(=O)CC[C@H](NC(=O)CC[C@H](NC(=O)CC[C@H](NC(=O)CC[C@H](NC(=O)CCCCCCCCCCCCCCCCCCC(=O)O)C(=O)O)C(=O)O)C(=O)O)C(=O)O)CC1)C(=O)N[C@@H](CCN)C(=O)N1CCC[C@H]1C(=O)N[C@@H](CCCNC(=N)N)C(=O)NCC(N)=O) [C20DA-gGlu4-Sar15-AEPipAc-Tyr-Phe-NMeLeu-Nle-Dbu-Pro-Arg-Gly-NH2]	–	–	–
